Data set [1] can be described thus: Solubility determination by titrating deionised water, assessed visually. The data set is classed as physicochemical. The settings on record: visual, lower limit = soluble, upper limit = undissolved material present. The procedure:
Solubility was assessed using known quantities (approx 1 mg) and titrating small volumes (2-40 microlitres) of deionised water and assessed visually. The data given are ranges. The lower limit represents soluble and upper limit the presence of undissolved material.

Data set [2] is described as follows: Differential Scanning Calorimetry (DSC) glass transition. The conditions noted are these: dry amorphous lisinopril, anomalous endotherm. The data set is classed as physicochemical. The procedure: Differential Scanning Calorimetry (DSC) was performed on approximately 0.5-3 mg sample, using a Mettler DSC820 instrument, according to standard methods, for example those described in Hohne et al. (1996) Differential scanning Calorimetry, Springer, Berlin.
On the technique in general: In DSC, transitions show as peaks or steps in heat flow.

A short description of data set [3]: Thermal Mechanical Analysis (TMA) glass transition point. The data set is classed as physicochemical. The settings on record: compressed pellet, heating rate 10° C./min, 30-160° C. The method, then: The method involves compressing 140 mg of material in a punch and die (3 mm) to 2 KN. The compressed pellet was then placed on the TMA and the 1.1 mm probe placed on the top face. A heating rate of 10° C./min was used and the sample was heated from 30-160° C.

The conditions of data set [4]: literature value, Ip et al. 1992; cited from earlier work.
For data set [5] the following is noted: cited from earlier work.

Consider three compounds from patent publication US6458769B1, “Amorphous compound” (AstraZeneca AB, priority 2001, dated 2002).

Usually solubility stands for the concentration that dissolves in the medium under given conditions. The low end stands for a poorly soluble substance, the high end for a readily soluble substance. Regarding `NCCCC[C@H](NC(CCc1ccccc1)C(=O)O)C(=O)N1CCC[C@H]1C(=O)O` (stereo partly drawn) [amorphous lisinopril, (S)-1-[N^2-(1-carboxy-3-phenylpropyl]-L-lysyl]-L-proline], the “solubility” value in data set [1] (listed as Amorphous) lay within 900 to 1250 mg/mL. Also, in data set [2], the “glass transition temperature (Tg) by DSC” value turned out to be 125 °C. In addition, the “glass transition temperature by TMA” value in data set [3] came out at 129 °C.

As to `NCCCC[C@H](NC(CCc1ccccc1)C(=O)O)C(=O)N1CCC[C@H]1C(=O)O` (stereo partly drawn) [Dihydrate, (S)-1-[N^2-(1-carboxy-3-phenylpropyl]-L-lysyl]-L-proline], the “solubility” value in data set [1] was in the range of 60 to 65 mg/mL. Also, the “Reference solubility (mg/ml)” value in data set [4] is 97^1 mg/ml.

Regarding `NCCCC[C@H](NC(CCc1ccccc1)C(=O)O)C(=O)N1CCC[C@H]1C(=O)O` (stereo partly drawn) [lisinopril, (S)-1-[N^2-(1-carboxy-3-phenylpropyl]-L-lysyl]-L-proline], the “effective half-life of accumulation” value in data set [5] (multiple dosing) is “about 12.6 hours”. The “time to peak serum concentrations” value in data set [5] (oral administration) was not above 7 h.
